Assay results from patent US20240247048A1 (EMORY UNIVERSITY, priority 2021, published 2024).
“Also recorded” adds a separate entry of the source.

Experiments:
[1] = system: luciferase+ mouse T cells; assay: proliferation of luciferase+ mouse T cells in vitro (plate-bound anti-CD3, luminescence); type: cell-based; details: 96 hours; for lowest concentration of peptide that led to maximal luminescence: luc+ T cell proliferation, plate-bound anti-CD3; for luc+ T cell proliferation: relative luminescence, quadruplicate wells, plate-bound anti-CD3, daily addition of peptide, at the concentration in brackets
Description: (§1) VIP-related peptides tested in silico for predicted binding affinities to human VPAC1 and VPAC2 (Creative Biolabs). Docking scores show predicted free energy change associated with peptide binding. Note that a greater negative score is predicted to be associated with higher binding affinity. Based upon an initial screen of 300 peptides for binding affinity to VPAC1 and screening a subset of 100 peptides for binding affinity to VPAC2, a select group of peptides were synthesized and tested for their ability to stimulate proliferation of luciferase+ mouse T cells in vitro. The lowest concentration of peptide that led to maximal luminescence is shown. Proliferation data represents the relative level of luminescence from quadruplicate wells containing 1×10E5 T cells/well in a 96 well tissue culture plate stimulated for 96 hours with plate-bound anti-CD3 antibodies. Confirmatory in vivo testing of select peptides was then performed based upon their ability to induce autologous anti-leukemia responses in C57Bl/6 mice that had been previously injected with 1×10E6 C1498 acute myeloid leukemia cells. Leukemia cells were injected on day 0, 10 ug peptide was injected s.c. daily on days 6-12. The predicted binding affinity to VPAC1 and/or VPAC2 was associated with enhanced activity in stimulating mouse T cell proliferation and anti-leukemia activity in mice.

[2] = toxicity in immunologically naive C57BL/6 mice; type: in vivo; details: for H&E staining of colon and lung tissue: FIG. 29c-29d; for overall survival, activity levels or weight of mice: daily s.c. for 10 days, same dose as anti-cancer protocol, FIG. 29a; for toxicity in C57BL/6 mice: daily s.c. injection for 10 days, analyzed day 11, FIG. 29
Description: C57BL/6 mice received daily subcutaneous injection of ANT008 or ANT308 for 10 days (n=5 per group) and analyzed for evidence of toxicity on day 11. (FIG. 29A) Body weight in grams during the duration of drug administration; (FIG. 29B) Number of WBCs, RBCs and platelets in blood as per complete blood count (left) proportions of T cells, B cells, NK cells, DCs and MDSCs in spleen as identified by flow cytometry (right) are plotted. Representative H&E stained sections of (FIG. 29C) colon (top), lungs (bottom) and (FIG. 29D) liver are shown. Arrows in FIG. 29D show the focal hepatic lesions in liver. […] C57BL/6 mice received daily subcutaneous injection of 30 ug of ANT308 (n=6) or a combination of 30 ug of ANT308 daily along with 200 ug of anti-PD1 every 3 days (n=6), for a duration of 4 days. Mice receiving scrambled peptide and isotype IgG served as control (n=4). (FIG. 29E) Weight of the mice, (FIG. 29F) complete blood count (CBC) and (FIG. 29G) serum chemistries after 4 days of treatment are plotted. P values in FIGS. 29B, 29E, 29F, and 29G were calculated by ANOVA followed by Dunnett's post-test. Error bars represent mean and standard deviation. *p<0.05, **p<0.01.
To evaluate the effect of VIP-R-mediated signaling inhibition on the growth of PDAC tumors in vivo, three different murine PDAC tumors (KPC-Luc, MT5 and Panc02) were implanted in syngeneic immunocompetent C57BL/6 mice. After tumors were palpable, mice were randomly allocated to treatment with VIP-R antagonists and/or anti-PD-1 monoclonal antibody, or control groups that received scrambled peptide or isotype-matched IgG. […] In addition to the antitumor efficacy, the safety of VIP-R antagonists in immunologically naïve mice was confirmed (FIGS. 29a-29g).
Histology. All tissues for histology were fixed at 4° C. for 2-3 days in 4% paraformaldehyde in PBS, embedded in paraffin and cut into 5-μm thick sections. Slides were deparaffinized with EZ-Prep (#05279771001, Ventana, Tucson, AZ) and then were antigen retrieved for 64 minutes with CC1 reagent (#950-500, Ventana, Tucson, AZ). Mouse anti-VPAC1 and anti-VPAC2 from Sigma Aldrich (St. Louis, MO) diluted at 1:500 or rabbit anti-cytokeratin-19 (Abcam, Cambridge, MA) diluted at 1:500 were applied and incubated for 40 minutes. DISCOVERY OmniMap anti-mouse or anti-rabbit HRP was applied and incubated for 12 minutes. The detection was completed in combination with DISCOVERY ChromoMap DAB kit as per manufacturer's recommendations. Pancreas harvested from mice with orthotopically implanted KPC-Luc tumors or colon, liver and inflated lungs harvested from naïve C57BL/6 mice receiving ANT008 or ANT308 were formalin-fixed and paraffin embedded before being stained with H&E (Leica 560 MX, Wetzlar, Germany) or Masson's Trichrome (Polyscientific Inc., Bay Shore, NY). All slides were dehydrated, cover-slipped and scanned on Hamamatsu Nanozoomer 2.0 HT at 40× and reviewed by a pathologist.

[3] = system: C1498 acute myeloid leukemia cells; assay: survival of mice engrafted with C1498 acute myeloid leukemia; type: in vivo, mouse; parameters: percentage of survival: concentration or dose not given beside the values; details: for Median survival time / Percentage alive day 60: 1 x 10E6 C1498 i.v. on day 0, 10 ug peptide s.c. daily on days 6-12
Description: B6 (CD45.2, H-2K^b) mice were administered C1498 1×10^6/mouse through tail vein. […] Survival of the mice was observed daily. Data were pooled from 3 replicated experiments.
B6 (CD45.2, H-2K^b) mice were administered C1498 1×10^6/mouse through tail vein. […] Survival of the mice was observed daily. Survival of the mice were pooled from 3 replicated experiments and analyzed by log-rank test compared with the survival of mice treated with scrambled peptide.
B6 SJL (CD45.1, H-2K^b) mice were administered C1498 (CD45.2 H-2K^b) 1×10^6/mouse through tail vein. […] The mice were bled weekly from the submandibular vein, starting from day 6, prior to the administration of peptides. Antibodies to CD45.2 identified myeloid leukemia cells and antibodies to CD45.1 identified murine leukocytes of the host.
as §1
To test the ability of the disclosed VIP-R antagonists to effect survival to acute myeloid leukemia survival, B6 (CD45.2, H-2K^b) mice were administered C1498 1×10^6/mouse through tail vein. […] Survival of the mice was observed daily.

## KPRRPYTDNYTRLRKQMAVKKYLNLILN [ANT008]
[1]
  lowest concentration of peptide that led to maximal luminescence: 1 µM
  luc+ T cell proliferation: 185% + 24%
[2]
  H&E staining of colon and lung tissue: did not show lymphocytic infiltrates or histopathology to suggest auto-immunity
  overall survival, activity levels or weight of mice: did not affect
  toxicity in C57BL/6 mice: no adverse toxicity
[3]
  Median survival time: 35 days
  Percentage alive day 60: 16%
[3]; FIG. 3, leukemia-bearing mice treated with peptide
  percentage of survival: 16%

## KPRRPYTSDYTRLRKQMAVKKYLNLILN [ANT308]
[1]
  lowest concentration of peptide that led to maximal luminescence: 3 µM
  luc+ T cell proliferation: 109% + 8%
[2]
  H&E staining of colon and lung tissue: did not show lymphocytic infiltrates or histopathology to suggest auto-immunity
  overall survival, activity levels or weight of mice: did not affect
  toxicity in C57BL/6 mice: no adverse toxicity
[3]
  Median survival time: 34 days
  Percentage alive day 60: 40%
[3]; FIGS. 39 and 40
  clearance of C1498 leukemia and long-term survival: dose-dependent clearance; also recorded: schedule-dependent clearance
